Assays:
Experiment in all cases: Post-emergence application in field trials, herbicidal activity (damage scale 0 to 100%)
Format in all cases: in vivo
[1] = test system: Echinochloa crus-galli (ECHCG)
Description: (§1) In the examples below, using the method of S. R. Colby (1967) “Calculating synergistic and antagonistic responses of herbicide combinations”, Weeds 15, p. 22ff., the value E, which is expected if the activity of the individual active compounds is only additive, was calculated:
(§2) [formula] • wherein • X=percent activity using active herbicide A at an application rate a; • Y=percent activity using active herbicide B (e.g. pyroxasulfone) at an application rate b; • E=expected activity (in %) by A+B at application rates a+b.
(§3) If the value found experimentally is higher than the value E calculated according to Colby, a synergistic effect is present.
(§4) On field test sites, natural weed infestation or seeded weeds were treated post-emergence of the weeds.
(§5) In the field trials, the weeds were treated as indicated below.
(§6) In the following experiments, the herbicidal activity for the individual herbicidal compositions (solo and mixture applications) was assessed at the indicated days after treatment (DAT). The assessments for the damage on undesired weeds caused by the composition was carried out using a scale from 0 to 100%, compared to the untreated control plants. Here, 0 means no damage and 100 means complete destruction of the plants.
Herbicide A-1 (50 g/l) and pyroxasulfone (85% WG) were, together with addition of 0.5% MSO (methylated seed oil) as adjuvant, formulated in water as distribution medium (water volume 200 l/ha) and sprayed with commercial flat fan nozzles.

[2] = test system: Lolium multiflorum (LOLMU)
Description: as §1, §2
(§7) For 3-component mixtures the synergistic response was calculated as described in: Ferry, Nancy; Stanley, Bruce H.; and Armel, Gregory (2005). “DESIGN AND ANALYSIS OF BIOLOGICAL ASSAYS OF MIXTURES,” Conference on Applied Statistics in Agriculture. https://doi.org/10.4148/2475-7772.1133. According to this publication, the Colby calculation can be generalized to a third mixing partner, Z, employing the following formula: […]
as §3, §4, §5, §6
(§8) Herbicide A-1 (342 g/l) and pyroxasulfone (500 g/l) were, together with addition of 0.25 v/v % MSO (methylated seed oil) as adjuvant, formulated in 200 l/ha water as distribution medium and sprayed with commercial flat fan nozzles.
(§9) Herbicide A-1 (342 g/l), pyroxasulfone (500 g/l) and trifludimoxazin (500 g/l) were, together with addition of 0.25 v/v % MSO (methylated seed oil) as adjuvant, formulated in 200 l/ha water as distribution medium and sprayed with commercial flat fan nozzles.
(§10) Herbicide A-1 (342 g/I), pyroxasulfone (500 g/l) and glyphosate-isopropylammonium (356 g/l) were, together with addition of 0.25 v/v % MSO (methylated seed oil) as adjuvant, formulated in 200 l/ha water as distribution medium and sprayed with commercial flat fan nozzles.
(§11) Herbicide A-1 (342 g/l), pyroxasulfone (500 g/l) and glufosinate-P-ammonium (211 g/l) were, together with addition of 0.25 v/v % MSO (methylated seed oil) as adjuvant, formulated in 200 l/ha water as distribution medium and sprayed with commercial flat fan nozzles.
(§12) Herbicide A-1 (342 g/l), pyroxasulfone (500 g/l) and 2,4-D-choline (456 g/l) were, together with addition of 0.25 v/v % MSO (methylated seed oil) as adjuvant, formulated in 200 l/ha water as distribution medium and sprayed with commercial flat fan nozzles.

[3] = test system: Digitaria sanguinalis (DIGSA)
Description: as §1, §2, §7, §3, §4, §5, §6, §8, §9, §10, §11, §12

Zea mays (ZEAMX) = test system: Zea mays (ZEAMX)
Description: as §1, §2, §7, §3, §4, §5, §6, §8, §9, §10, §11, §12

Hordeum vulgare (HORVW) = test system: Hordeum vulgare (HORVW)
Description: as §1, §2, §7, §3, §4, §5, §6, §8, §9, §10, §11, §12

Measured: % Herbicidal activity

Cn1nc(C(F)(F)F)c(CS(=O)(=O)C2=NOC(C)(C)C2)c1OC(F)F [B, pyroxasulfone]
20%: [2]; LOLMU, growth stage 22-25, height 20-25 cm, B 70 g ai/ha, 21 DAT, Table 4.4
0%: [1]; ECHCG, height 20-25 cm, B 120 g ai/ha, 21 DAT, Table 2.3 | [1]; Table 8.2, 21 DAT, stage 23-30, height 15-20 cm, g ai/ha A-1 18, B 70, C-12 1066 | [1]; Table 8.2, 21 DAT, stage 23-30, height 15-20 cm, g ai/ha A-1 18, B 90, C-12 1066 | [1]; Table 8.3, 28 DAT, stage 23-30, height 15-20 cm, g ai/ha A-1 18, B 70, C-12 1066 | [1]; Table 8.3, 28 DAT, stage 23-30, height 15-20 cm, g ai/ha A-1 18, B 90, C-12 1066 | [3]; 7 DAT, stage 22, height 10-15 cm, g ai/ha A-1 12.5, B 70, C-4 12.5 | [3]; 7 DAT, stage 22, height 10-15 cm, g ai/ha A-1 18, B 70, C-4 12.5 | [3]; 7 DAT, stage 22, height 10-15 cm, g ai/ha A-1 18, B 70, C-8 840 | [3]; 7 DAT, stage 22, height 10-15 cm, g ai/ha A-1 18, B 70, C-12 252 | [3]; 7 DAT, stage 22, height 10-15 cm, g ai/ha A-1 18, B 90, C-4 12.5 | [3]; 7 DAT, stage 22, height 10-15 cm, g ai/ha A-1 18, B 90, C-8 840 | [3]; 7 DAT, stage 22, height 10-15 cm, g ai/ha A-1 18, B 90, C-12 252 | [3]; 21 DAT, stage 22, height 10-15 cm, g ai/ha A-1 12.5, B 70, C-4 12.5 | [3]; 21 DAT, stage 22, height 10-15 cm, g ai/ha A-1 18, B 70, C-4 12.5 | [3]; 21 DAT, stage 22, height 10-15 cm, g ai/ha A-1 18, B 70, C-12 252 | [3]; 21 DAT, stage 22, height 10-15 cm, g ai/ha A-1 18, B 90, C-4 12.5 | [3]; 21 DAT, stage 22, height 10-15 cm, g ai/ha A-1 18, B 90, C-12 252 | [3]; 42 DAT, stage 22, height 10-15 cm, g ai/ha A-1 12.5, B 70 | [3]; 42 DAT, stage 22, height 10-15 cm, g ai/ha A-1 12.5, B 70, C-4 12.5 | [3]; 42 DAT, stage 22, height 10-15 cm, g ai/ha A-1 18, B 70 | [3]; 42 DAT, stage 22, height 10-15 cm, g ai/ha A-1 18, B 70, C-4 12.5 | [3]; 42 DAT, stage 22, height 10-15 cm, g ai/ha A-1 18, B 70, C-12 252 | [3]; 42 DAT, stage 22, height 10-15 cm, g ai/ha A-1 18, B 90 | [3]; 42 DAT, stage 22, height 10-15 cm, g ai/ha A-1 18, B 90, C-4 12.5 | [3]; 42 DAT, stage 22, height 10-15 cm, g ai/ha A-1 18, B 90, C-12 252 | [3]; DIGSA, growth stage 22, height 10-15 cm, B 70 g ai/ha, 7 DAT, Table 4.1 | [3]; DIGSA, growth stage 22, height 10-15 cm, B 70 g ai/ha, 21 DAT, Table 4.3 | [3]; DIGSA, growth stage 22, height 10-15 cm, B 90 g ai/ha, 7 DAT, Table 4.1 | [3]; DIGSA, growth stage 22, height 10-15 cm, B 90 g ai/ha, 21 DAT, Table 4.3 | [3]; Table 8.1, 7 DAT, stage 22, height 10-15 cm, g ai/ha A-1 18, B 70, C-12 1066 | [3]; Table 8.2, 21 DAT, stage 22, height 10-15 cm, g ai/ha A-1 18, B 70, C-12 1066 | [3]; Table 8.4, 42 DAT, stage 22, height 10-15 cm, g ai/ha A-1 18, B 70, C-12 1066 | Zea mays (ZEAMX); 7 DAT, stage 15-16, height 27-33 cm, g ai/ha A-1 12.5, B 70, C-12 252 | Zea mays (ZEAMX); 7 DAT, stage 15-16, height 27-33 cm, g ai/ha A-1 18, B 70, C-12 252 | Zea mays (ZEAMX); 7 DAT, stage 15-16, height 27-33 cm, g ai/ha A-1 18, B 90, C-4 12.5 | Zea mays (ZEAMX); 7 DAT, stage 15-16, height 27-33 cm, g ai/ha A-1 18, B 90, C-12 252 | Zea mays (ZEAMX); 21 DAT, stage 15-16, height 27-33 cm, g ai/ha A-1 12.5, B 70, C-12 252 | Zea mays (ZEAMX); 21 DAT, stage 15-16, height 27-33 cm, g ai/ha A-1 18, B 70, C-12 252 | Zea mays (ZEAMX); 21 DAT, stage 15-16, height 27-33 cm, g ai/ha A-1 18, B 90, C-12 252 | Zea mays (ZEAMX); 42 DAT, stage 15-16, height 27-33 cm, g ai/ha A-1 12.5, B 70, C-12 252 | Zea mays (ZEAMX); 42 DAT, stage 15-16, height 27-33 cm, g ai/ha A-1 18, B 70, C-12 252 | Zea mays (ZEAMX); 42 DAT, stage 15-16, height 27-33 cm, g ai/ha A-1 18, B 90, C-12 252 | Hordeum vulgare (HORVW); 7 DAT, stage 23-29, height 20-25 cm, g ai/ha A-1 12.5, B 70, C-12 252 | Hordeum vulgare (HORVW); 7 DAT, stage 23-29, height 20-25 cm, g ai/ha A-1 18, B 70, C-12 252 | Hordeum vulgare (HORVW); 7 DAT, stage 23-29, height 20-25 cm, g ai/ha A-1 18, B 90, C-12 252 | Hordeum vulgare (HORVW); 21 DAT, stage 23-29, height 20-25 cm, g ai/ha A-1 12.5, B 70, C-12 252 | Hordeum vulgare (HORVW); 21 DAT, stage 23-29, height 20-25 cm, g ai/ha A-1 18, B 70, C-12 252 | Hordeum vulgare (HORVW); 21 DAT, stage 23-29, height 20-25 cm, g ai/ha A-1 18, B 90, C-12 252 | Hordeum vulgare (HORVW); 28 DAT, stage 23-29, height 20-25 cm, g ai/ha A-1 12.5, B 70, C-12 252 | Hordeum vulgare (HORVW); 28 DAT, stage 23-29, height 20-25 cm, g ai/ha A-1 18, B 70, C-12 252 | Hordeum vulgare (HORVW); 28 DAT, stage 23-29, height 20-25 cm, g ai/ha A-1 18, B 90, C-12 252 | Hordeum vulgare (HORVW); HORVW, growth stage 23-29, height 20-25 cm, B 70 g ai/ha, 7 DAT, Table 4.2 | Hordeum vulgare (HORVW); HORVW, growth stage 23-29, height 20-25 cm, B 70 g ai/ha, 21 DAT, Table 4.4 | Hordeum vulgare (HORVW); HORVW, growth stage 23-29, height 20-25 cm, B 70 g ai/ha, 28 DAT, Table 4.5 | Hordeum vulgare (HORVW); HORVW, growth stage 23-29, height 20-25 cm, B 90 g ai/ha, 7 DAT, Table 4.2 | Hordeum vulgare (HORVW); HORVW, growth stage 23-29, height 20-25 cm, B 90 g ai/ha, 21 DAT, Table 4.4 | Hordeum vulgare (HORVW); HORVW, growth stage 23-29, height 20-25 cm, B 90 g ai/ha, 28 DAT, Table 4.5
3%: Zea mays (ZEAMX); ZEAMX, growth stage 15-16, height 40-60 cm, B 70 g ai/ha, 21 DAT, Table 4.4
5%: Zea mays (ZEAMX); Table 8.1, 7 DAT, stage 15-16, height 50-60 cm, g ai/ha A-1 18, B 70, C-12 1066 | Zea mays (ZEAMX); Table 8.1, 7 DAT, stage 15-16, height 50-60 cm, g ai/ha A-1 18, B 90, C-12 1066 | Zea mays (ZEAMX); ZEAMX, growth stage 15-16, height 40-60 cm, B 70 g ai/ha, 7 DAT, Table 4.2 | Zea mays (ZEAMX); ZEAMX, growth stage 15-16, height 40-60 cm, B 90 g ai/ha, 7 DAT, Table 4.2
10%: [1]; 7 DAT, stage 23-30, height 15-20 cm, g ai/ha A-1 12.5, B 70, C-12 252 | [1]; 21 DAT, stage 23-30, height 15-20 cm, g ai/ha A-1 12.5, B 70, C-12 252 | [1]; 28 DAT, stage 23-30, height 15-20 cm, g ai/ha A-1 12.5, B 70, C-12 252 | [2]; 7 DAT, stage 22-25, height 20-25 cm, g ai/ha A-1 12.5, B 70, C-12 252 | [2]; 7 DAT, stage 22-25, height 20-25 cm, g ai/ha A-1 18, B 70, C-12 252 | [2]; 7 DAT, stage 22-25, height 20-25 cm, g ai/ha A-1 18, B 90, C-12 252 | [2]; 21 DAT, stage 22-25, height 20-25 cm, g ai/ha A-1 12.5, B 70, C-12 252 | [2]; 21 DAT, stage 22-25, height 20-25 cm, g ai/ha A-1 18, B 70, C-12 252 | [2]; 21 DAT, stage 22-25, height 20-25 cm, g ai/ha A-1 18, B 90, C-12 252 | [2]; 28 DAT, stage 22-25, height 20-25 cm, g ai/ha A-1 12.5, B 70, C-12 252 | [2]; 28 DAT, stage 22-25, height 20-25 cm, g ai/ha A-1 18, B 70, C-12 252 | [2]; 28 DAT, stage 22-25, height 20-25 cm, g ai/ha A-1 18, B 90, C-12 252 | [2]; LOLMU, growth stage 22-25, height 20-25 cm, B 90 g ai/ha, 7 DAT, Table 4.2 | [2]; LOLMU, growth stage 22-25, height 20-25 cm, B 90 g ai/ha, 21 DAT, Table 4.4

Source: patent US12690589B2, “Herbicidal compositions comprising pyroxasulfone” (BASF SE, priority 2024, dated 2026)
